Experimental data taken from patent publication US8673882B2, “Inhibitors of autotaxin” (University of Tennessee Research Foundation, priority 2011, dated 2014).
“Also recorded” adds a separate entry of the source.

Test system: MM1 hepatocarcinoma cells
Experiment: Invasion of mesothelial cell monolayer by MM1 cells
Assay type: cell-based, rat
Conditions: with LPC; FIG. 12 panel E
Source text: Cancer metastasis is a complex process that cannon be accurately modeled in vitro. Models that utilize cellular monolayers for the invasion of carcinoma cell come the closest to the situation in vivo. Two different cell monolayers, mouse mesothelium and human vascular endothelium were used to examine the role of ATX in the invasion of MM1 hepatocarcinoma cells and the reduction of such invasion by the chemical compounds of the present application. The mesothelial monolayer is an accepted model for invasion of body cavities lined by serous cells whereas, the HUVEC monolayer is considered to be an in vitro model of hematogenous invasion of carcinomas.
Highly invasive MM1 cells originally isolated from the AH130 rat hepatoma cells were utilized in these studies. The cells were grown in suspension in DMEM supplemented with 10% fetal bovine serum, 2 mM glutamine, 100 units/ml penicillin and 10 μg/ml streptoinycin. Mesothelial cells were isolated and cultured from C57BL/6 mice. Human umbilical cord vascular endothelial cells (HUVEC) were obtained from VEC Technologies Inc., (Rensselaer, N.Y., USA) and were grown in MCDB-131 complete medium containing 10% fetal bovine serum. 90 μg/ml heparin, 10 ng/ml EGF, 1 μg/ml hydrocortisone, 0.2 mg/ml EndoGrowth supplement, 100 units/ml penicillin G, 100 μg/ml streptomycin and 25 μg/ml amphotericin B (all from VEC Technologies). Tumor cell invasion was performed by seeding 1.3×10^5 HUVECs (passage 7) into each well of a 12-well plate pre-coated with 0.2% gelatin (Sigma) and cultured for 2 days to form a confluent monolayer. Mesothelial cells harvested from two-three mice were initially plated in 6-well plates and grown to confluency in DMEM medium supplemented with 10% fetal bovine serum in the presence of 100 units/ml penicillin G and 10 μg/ml streptomycin. When confluent, the mesothelial cells were split into three equal aliquots (˜5×10^4 cells each) and plated to three wells of a 12-well plate and grown to confluence.
Invasion of MM1 cells of Example 53 was determined and the effect of compounds of the present application in reducing the invasion was determined. For all invasion assays, MM1 cells were pre-stained with 2 μg/ml calcein AM (Invitrogen, USA) for 2 h, rinsed once, and seeded at a density of 5×10^4 cells/well over the monolayers. […] The number of tumor cells that penetrated the monolayer was photographed under a NIKON TiU inverted microscope using phase-contrast and fluorescence illumination in a minimum of five non-overlapping fields at 100× magnification. The fluorescent images were overlayed on top of the phase contrast images using the Elements BR software (version 3.1x) and the invaded MM1 cells showing the characteristic flattened morphology in the plane of focus underneath the monolayer were counted. […]

| Structure (SMILES) | MM1 cell invasion of the mesothelial monolayer |
| --- | --- |
| CCCCCCCCCCCCCCCc1ccc(CP(=O)(O)O)cc1 [Compound 22, 4-Pentadecylbenzylphosphonic acid] | inhibited; also recorded: inhibition |
| CCCCCCCCCCC/C=C/c1ccc2cc(CP(=O)(O)O)ccc2c1 [Compound 30b, (E)-6-Tridec-1-enyl-naphthalen-2-yl-methylphosphonic acid] | inhibited |
